Source: ChEMBL document CHEMBL6087446, “Hypoxia Activated Nitric Oxide Donor Compounds for the Prevention and Treatment of Myocardial Hypoxia-Induced Injury” (J Med Chem, 2025)
Calls of active or inactive are those of the source. No cut-off for these calls is given here.

Tests used:
Mus musculus [1] = assay: Prevention of myocardial hypoxia injury in isoproterenol-induced male C57 mouse myocardial injury model assessed as decrease in heart weight ratio at 8 mg/kg, ip once daily for 3 consecutive days (reference value: 0.68%); type: functional; set-up: scale not given: the % may be the effect or the level left; details: time 3 day
H9c2 [2] = assay: Induction of NO release in rat H9c2 cells under hypoxia condition at 10 uM by Griess reagent assay relative to control; type: functional
[3] = Induction of NO release in rat H9c2 cells at 10 uM by Griess reagent assay relative to control; type: functional
H9c2 [4] = assay: Prevention of hypoxia-induced decrease in ATP level in rat H9c2 cells at 10 uM […] (Rvb =- 19.6 nmol/mg); type: ADME, cell-based; details: h9c2, 10 µM
[5] = AUC (0 to infinity) in female Balb/c at 8 mg/kg, ip mouse measured up to 24 hrs by LC-MS/MS analysis; type: ADME, organism-based; details: in vivo
[6] = Toxicity in male C57 mouse assessed as physiological distress at 900 mg/kg, ip measured after 12 hrs of administration; type: organism-based; details: in vivo
Mus musculus [7] = assay: Prevention of myocardial hypoxia injury in isoproterenol-induced male C57 mouse myocardial injury model assessed as reduction in creatine kinase (CK) at 5 mg/kg, ip once daily for 3 consecutive days by immunohistochemistry; type: functional, organism-based; details: time 3.0 day
[8] = AUC (0 to last) in female Balb/c at 8 mg/kg, ip mouse measured up to 24 hrs by LC-MS/MS analysis; type: ADME, organism-based; details: in vivo
Mus musculus [9] = assay: Prevention of myocardial hypoxia injury in isoproterenol-induced male C57 mouse myocardial injury model assessed as antihypertrophic effect at 16 mg/kg, ip once daily for 3 consecutive days; type: functional, organism-based; details: time 3.0 day
H9c2 [10] = assay: Prevention of hypoxia-induced apoptosis in rat H9c2 cells assessed as decrease in early apoptosis by measuring reduced green fluorescence at 10 uM incubated for 4 hrs by confocal microscopy with Annexin V-FITC and propidium iodide (PI) double staining analysis; type: functional, cell-based
H9c2 [11] = assay: Prevention of hypoxia-induced mTORC1 expression in rat H9c2 cells assessed as inhibition of mTORC1 overexpression at 10 uM measured after 4 hrs incubation; type: functional, cell-based
Mus musculus [12] = assay: (§1) Prevention of myocardial hypoxia injury in isoproterenol-induced male C57 mouse myocardial injury model assessed as pathological myocardial change by heart sections at 8 to 16 mg/kg, ip once daily for 3 consecutive days by hematoxylin and eosin staining based analysis; type: functional, organism-based; details: dose 8-16 mg/kg, time 3.0 day
Mus musculus [13] = assay: Prevention of myocardial hypoxia injury in isoproterenol-induced male C57 mouse myocardial injury model assessed as reduction in creatine kinase-MB (CK-MB) at 8 to 16 mg/kg, ip once daily for 3 consecutive days by immunohistochemistry; type: functional, organism-based; details: dose 8-16 mg/kg, time 3.0 day
H9c2 [14] = assay: Prevention of hypoxia-induced ACE expression in rat H9c2 cells assessed as inhibition of ACE overexpression at 10 uM measured after 4 hrs incubation; type: functional, cell-based
[15] = Toxicity in male C57 mouse assessed as adverse effect at 900 mg/kg, ip measured up to 14 days observation period; type: organism-based; details: in vivo, 336 h, time < 14 day
Mus musculus [16] = assay: Prevention of myocardial hypoxia injury in isoproterenol-induced male C57 mouse myocardial injury model assessed as prevention of bundle collagen fiber deposition at 8 to 16 mg/kg, ip once daily for 3 consecutive days by Masson staining based analysis; type: functional, organism-based; details: dose 8-16 mg/kg, time 3.0 day
H9c2 [17] = assay: Prevention of hypoxia-induced ROS production in rat H9c2 cells at 1 uM measured after 4 hrs incubation by DCFH-DA method; type: functional, cell-based
H9c2 [18] = assay: Induction of NO release in rat H9c2 cells under hypoxia condition by Griess reagent assay relative to control; type: functional, cell-based
[19] = Toxicity in isoproterenol-induced male C57 mouse assessed as body weight change at 5 mg/kg, ip once daily for 3 consecutive days; type: organism-based; details: in vivo, 72 h, time 3 day
Mus musculus [20] = assay: Prevention of myocardial hypoxia injury in isoproterenol-induced male C57 mouse myocardial injury model assessed as pathological myocardial change by measuring cellular arrangements at 8 to 16 mg/kg, IG once daily for 3 consecutive days by hematoxylin and eosin staining based analysis; type: functional, organism-based; details: dose 8-16 mg/kg, time 3.0 day
Mus musculus [21] = assay: Prevention of myocardial hypoxia injury in isoproterenol-induced male C57 mouse myocardial injury model assessed as pathological myocardial change by absence of infarction areas at 8 to 16 mg/kg, ip once daily for 3 consecutive days by hematoxylin and eosin staining based analysis; type: functional, organism-based; details: dose 8-16 mg/kg, time 3.0 day
Mus musculus [22] = assay: Prevention of myocardial hypoxia injury in isoproterenol-induced male C57 mouse myocardial injury model assessed as decrease in mTORC1 expression at 8 to 16 mg/kg, ip once daily for 3 consecutive days by immunohistochemistry; type: functional, organism-based; details: dose 8-16 mg/kg, time 3.0 day
Mus musculus [23] = assay: Prevention of myocardial hypoxia injury in isoproterenol-induced male C57 mouse myocardial injury model assessed as heart weight ratio at 16 mg/kg, ip once daily for 3 consecutive days (reference value: 0.60%); type: functional; details: time 3 day
[24] = Half life in female Balb/c mouse at 8 mg/kg, ip measured up to 24 hrs by LC-MS/MS analysis; type: ADME, organism-based; details: in vivo
Mus musculus [25] = assay: Prevention of myocardial hypoxia injury in isoproterenol-induced male C57 mouse myocardial injury model assessed as decrease in myocardial size at 8 mg/kg, ip once daily for 3 consecutive days (reference value: 6.47 mm); type: functional; details: time 3 day
Mus musculus [26] = assay: Prevention of myocardial hypoxia injury in isoproterenol-induced male C57 mouse myocardial injury model assessed as reduction in creatine kinase (CK) at 8 to 16 mg/kg, ip once daily for 3 consecutive days by immunohistochemistry; type: functional, organism-based; details: dose 8-16 mg/kg, time 3.0 day
H9c2 [27] = assay: Prevention of hypoxia-induced decrease cell viability of rat H9c2 cells at 10 uM by CCK8 assay; type: functional, cell-based
Mus musculus [28] = assay: Prevention of myocardial hypoxia injury in isoproterenol-induced male C57 mouse myocardial injury model assessed as pathological myocardial change by clear vascular boundaries at 8 to 16 mg/kg, ip once daily for 3 consecutive days by hematoxylin and eosin staining based analysis; type: functional, organism-based; details: dose 8-16 mg/kg, time 3.0 day
[29] = Tmax in female Balb/c mouse at 8 mg/kg, ip measured up to 24 hrs by LC-MS/MS analysis; type: ADME, organism-based; details: in vivo
Mus musculus [30] = assay: Prevention of myocardial hypoxia injury in isoproterenol-induced male C57 mouse myocardial injury model assessed as reduction in cardiac troponin (CK) at 5 mg/kg, ip once daily for 3 consecutive days by immunohistochemistry; type: functional, organism-based; details: time 3.0 day
[31] = Toxicity in isoproterenol-induced male C57 mouse assessed as body weight change at 8 mg/kg, ip once daily for 3 consecutive days; type: organism-based; details: in vivo, 72 h, time 3 day
Mus musculus [32] = assay: Prevention of myocardial hypoxia injury in isoproterenol-induced male C57 mouse myocardial injury model assessed as increase in NO level in heart tissue at 16 mg/kg, ip once daily for 3 consecutive days; type: functional, organism-based; details: time 3.0 day
Mus musculus [33] = assay: as §1, with “measuring improvement in disorganized cell arrangement” for “heart sections”; type: functional, organism-based; details: dose 8-16 mg/kg, time 3.0 day
H9c2 [34] = assay: Prevention of hypoxia-induced apoptosis in rat H9c2 cells assessed as decrease in late apoptosis and necrosis by measuring reduced red fluorescence at 10 uM incubated for 4 hrs by confocal microscopy with Annexin V-FITC and propidium iodide (PI) double staining analysis; type: functional, cell-based
Mus musculus [35] = assay: Prevention of myocardial hypoxia injury in isoproterenol-induced male C57 mouse myocardial injury model assessed as reduction in cardiac troponin (CK) at 8 to 16 mg/kg, ip once daily for 3 consecutive days by immunohistochemistry; type: functional, organism-based; details: dose 8-16 mg/kg, time 3.0 day

## CN(N=O)c1ccc(OCc2ccc([N+](=O)[O-])c(F)c2)cc1
Mus musculus [1]
  Activity: 0.53%
H9c2 [2]
  Activity: 26.54%
[3]
  Activity: <5%
H9c2 [4]
  Activity: 37.9 nmol/mg
[5]
  AUC: 640 ng·h/mL
[6]
  Activity: Non-toxic
Mus musculus [7]
  Activity: Active
[8]
  AUC(0-t) at 24 h: 626 ng·h/mL
Mus musculus [9]
  Activity: Active
H9c2 [10]
  Activity: Active; Green Fluorescence Intensity Wes Lower Than Ismn Treated Cells
H9c2 [11]
  Activity: Active
Mus musculus [12]
  Activity: Active
Mus musculus [13]
  Activity: Active
H9c2 [14]
  Activity: Active
[15]
  Activity: Non-toxic
Mus musculus [16]
  Activity: Active
H9c2 [17]
  Activity: Active
H9c2 [18]
  Activity: Dose-dependent-effect
[19]
  Activity: Non-toxic
Mus musculus [20]
  Activity: Active
Mus musculus [21]
  Activity: Active
Mus musculus [22]
  Activity: Active
Mus musculus [23]
  Activity: 0.51%
[24]
  half-life: 143 min
Mus musculus [25]
  Activity: 2.53 mm
Mus musculus [26]
  Activity: Active
H9c2 [27]
  Activity: Active; Partially Restores Cell Viability
Mus musculus [28]
  Activity: Active
[29]
  Tmax: 2.08 h
Mus musculus [30]
  Activity: Active
[31]
  Activity: Non-toxic
Mus musculus [32]
  Activity: Active
Mus musculus [33]
  Activity: Active
H9c2 [34]
  Activity: Active; Reduced Red Fluorescence To Certain Extents
Mus musculus [35]
  Activity: Active
